Reference: patent US20260207626A1, “SYNTHETIC TRITERPENOIDS AND COMPOSITIONS THEREOF IN WEIGHT MANAGEMENT, SKELETAL MUSCLE FUNCTION, AND APPETITE SUPPRESSION” (The Board of Regents of the University of Texas System, priority 2022, published 2026)
Entries after “also recorded” stand apart in the source; their conditions may differ. Marks after values point to notes of the source that are not given here.

Key:
TNF-α [1] = assay: LPS-induced TNF-α ELISA in RAW 264.7 macrophages; format: cell-based, mouse; conditions: RAW264.7, 500 nM CDDO-EA 1 hour then 100 ng/ml LPS 6 hours
Procedure: Cytokine detection: RAW 264.7 cells were grown on 24-well dishes at 1×10^6 cells/ml, 0.5 ml/well. Cells were pre-treated with CDDO-EA 500 nM for 1 h. After 1 h, cells were treated with 100 ng/ml of LPS16,18 (E. coli O111: B4, Sigma Aldrich) for 6 h, and supernatants were collected and stored at −80° C. until analysis. TNF-α from the culture media of cells was measured and quantified using a Mouse TNF (Mono/Mono) ELISA Set (BD Bioscience) according to the manufacturer's instructions.

[2] = Chow consumption / energy intake of mice fed LFD or HFD with or without CDDO-EA; format: in vivo, C57B16/J mice
Procedure: To assess the protective effects of CDDO-EA from obesity and insulin resistance, C57B16/J mice (6-8 weeks old, male, strain #000664, The Jackson Laboratory) were used. The animals were fed a Low Fat diet (LFD) (10% total calories from fat, […]) or a High Fat diet (HFD) (60% of total calories from fat) incorporated with or without CDDO-EA (chow containing 0.04% CDDO-EA) for six weeks.
Energy intake was also measured. Energy intake is determined as a measure of the amount of food consumed by a subject (such as a subject mouse). […] Thus CDDO-EA protects from development of HFD-induced obesity in vivo.
The mice were maintained on one of the 4 food regiment schedules as defined in Example 2. The amount of food consumed by an animal was monitored weekly.

[3] = Serum glucose and insulin, oral glucose tolerance test (OGTT) in mice fed LFD or HFD with or without CDDO-EA; format: in vivo, C57B16/J mice
Procedure: Data were statistically analyzed by One-Way ANOVA, Two-Way ANOVA with repeated measures, or Two-Way ANOVA with Tukey's multiple comparison test. Throughout the collection of blood samples, OGTTs, and measurement of bodyweight, mice were unrestrained and awake. Blood samples were collected via tail snip before start of experimental feeding and then every two weeks. Oral glucose tolerance tests (OGTTs) were performed after the six-week experimental feeding, and blood samples were collected via tail snip during the OGTT. For OGTT, mice were given 2 g of glucose/kg of body weight by gavage after a five hour fast (36). Glucose levels were measured using a glucometer (Contour), and insulin concentrations were measured using an ELISA (Mercodia). Mice were weighed once a week. Glucose and insulin serum levels were measured every two weeks.
Glucose and insulin levels were measured in the subject animals to determine if prevention of obesity by CDDO-EA in a high fat diet (HFD) chow regimen and in a low fat diet (LFD) regimen coincided with a reduction in hyperglycemia and hyperinsulinemia.

TNF-α [4] = assay: RT-PCR of PA-induced TNF-α gene expression in L6-GLUT4myc myotubes; format: cell-based, rat; conditions: CDDO-EA 500 nM 1 h then PA 400 μM 6 h
Procedure: L6-GLUT4myc myotubes were pretreated with CDDO-EA (500 nM, 1 h) and treated PA (400 μM, 6 h). TNF-α and MCP-1 gene expression were measured by RT-PCR. Data are represented as +SEM *P<0.05 vs. control, ^#P<0.05 vs. control. * P<0.05 vs. LPS, $P<0.05 vs. PA. (One-Way ANOVA).

[5] = Body composition by NMR at 42 days; format: in vivo, C57BL/6J mice; conditions: all groups
Procedure: FIG. 24—Body composition at 42 days. Body composition was measured by NMR. C57BL/6J mice were fed a HFD with or without incorporation of CDDO-EA (diet containing 0.04% CDDO-EA) or LFD or HFD pair-fed for 6 weeks (n=5). BW=body weight. Data are represented as mean±SEM (Two-way Repeated Measures ANOVA).
C57BL/6J mice (6-8 weeks old, male, strain #000664, The Jackson Laboratory) were divided into four (4) groups (i)-(iv)): (i) ad libitum Low fat caloric content (LFD-10% of total calories from fat caloric content, #TD.08806, Envigo), (ii) ad libitum HFD (60% of total calories from fat caloric content, #TD.06414, Envigo), (iii) HFD+CDDO-EA (diet containing 0.04% CDDO-EA), and (iv) HFD pair-fed to food intake of mice fed HFD+CDDO-EA. The study was for 6 weeks (42 days) (performed at Vanderbilt Metabolic Mouse Phenotyping Center (VMMPC)). Mice were singly housed in a Promethion Metabolic Analyzer and were monitored continuously for 7 days to assess feeding and EE.

CCNC(=O)[C@]12CCC(C)(C)C[C@H]1C1C(=O)C=C3[C@@]4(C)C=C(C#N)C(=O)C(C)(C)[C@@H]4CC[C@@]3(C)[C@]1(C)CC2 (stereo partly drawn) [CDDO-EA, (4aS,6aR,6bS,8aR,12aS,14bS)-11-cyano-N-ethyl-2,2,6a,6b,9,9,12a-heptamethyl-10,14-dioxo-1,3,4,5,6,6a,6b, 7,8,8a,9,10,12a, 14,14a, 14b-hexadecahydropicene-4a (2H)-carboxamide]
LPS-induced TNF-α production (TNF-α [1]): substantially blocked; also recorded: inhibits LPS-induced cytokines secretion in macrophages
Grams of Chow per Week Consumed by Animals ([2]; HFD + CDDO-EA (0.04%), week 1): 18.0 ± 0.9 Grams of Chow per Week
Grams of Chow per Week Consumed by Animals ([2]; HFD + CDDO-EA (0.04%), week 2): 18.4 ± 1.0 Grams of Chow per Week
Grams of Chow per Week Consumed by Animals ([2]; HFD + CDDO-EA (0.04%), week 3): 16.8 ± 0.5 Grams of Chow per Week
Grams of Chow per Week Consumed by Animals ([2]; HFD + CDDO-EA (0.04%), week 4): 15.8 ± 0.4* * Grams of Chow per Week
Grams of Chow per Week Consumed by Animals ([2]; HFD + CDDO-EA (0.04%), week 5): 16.2 ± 0.5 Grams of Chow per Week
Grams of Chow per Week Consumed by Animals ([2]; HFD + CDDO-EA (0.04%), week 6): 16.6 ± 0.4 Grams of Chow per Week
energy intake (caloric food consumption) ([2]; HFD chow mixed with CDDO-EA): decreased energy intake; also recorded: inhibits energy intake
average weekly chow consumption ([2]; HFD+CDDO-EA group, all six weeks): 17 g
Grams of Chow per Week Consumed by Animals ([2]; LFD + CDDO-EA (0.04%), week 1): 19.2 ± 0.6 Grams of Chow per Week
Grams of Chow per Week Consumed by Animals ([2]; LFD + CDDO-EA (0.04%), week 2): 21.5 ± 0.6 Grams of Chow per Week
Grams of Chow per Week Consumed by Animals ([2]; LFD + CDDO-EA (0.04%), week 3): 21.1 ± 0.7 Grams of Chow per Week
Grams of Chow per Week Consumed by Animals ([2]; LFD + CDDO-EA (0.04%), week 4): 20.0 ± 0.2 Grams of Chow per Week
Grams of Chow per Week Consumed by Animals ([2]; LFD + CDDO-EA (0.04%), week 5): 21.3 ± 0.3 Grams of Chow per Week
Grams of Chow per Week Consumed by Animals ([2]; LFD + CDDO-EA (0.04%), week 6): 19.8 ± 0.4 Grams of Chow per Week
more food consumed by HFD-fed animals than by HFD plus CDDO-EA-fed animals ([2]; week 3): 20%
more food consumed by HFD-alone animals than by HFD + CDDO-EA animals ([2]; week one): at least 10%
OGTT serum glucose ([3]; HFD + CDDO-EA, after 6 weeks (FIG. 6B)): prevented increased serum glucose; also recorded: significantly decrease to glucose levels before the HFD experimental feeding; also recorded: prevents glucose intolerance
OGTT serum insulin ([3]; HFD + CDDO-EA, after 6 weeks (FIG. 7B)): prevented increased serum glucose (FIG. 6B) and insulin concentrations; also recorded: insulin levels did not increase significantly; also recorded: prevents hyperinsulinemia
serum glucose levels during feeding ([3]; HFD with CDDO-EA, weeks 0-6 (FIG. 13A)): did not increase throughout the six-week feeding; also recorded: prevents glucose intolerance
serum insulin levels during feeding ([3]; HFD with CDDO-EA, weeks 0-6 (FIG. 13B)): remained significantly higher in mice fed only a HFD compared to mice fed a HFD with CDDO-EA; also recorded: prevents hyperinsulinemia
serum glucose levels ([3]; LFD + CDDO-EA, after 6 weeks (FIG. 6A)): no significant increase or decrease in serum glucose levels; also recorded: did not affect glucose and insulin levels of mice fed LFD with CDDO-EA
insulin levels ([3]; LFD + CDDO-EA, after 6 weeks (FIG. 7A)): overlap with the insulin levels before experimental feeding; also recorded: did not affect glucose and insulin levels of mice fed LFD with CDDO-EA
PA-induced TNF-α gene expression (TNF-α [4]): inhibits PA-induced NF-κB activation and MCP-1 and TNF-α gene expression; also recorded: blocks TNF-α and MCP-1 gene expression
lean mass [5]: no difference in lean mass between the groups
